One test concerns the target T1, PI3K-delta (Homo sapiens, UniProt O00329).
T1 construct: purchased Upstate; Millipore 14-604
The test is described as follows: HTRF PI3K biochemical assay, delta isoform. The settings on record: form screened (neutral or TFA salt) given, read-out: PI3Kdelta IC50. On the technique in general: In TR-FRET formats the signal depends on donor and acceptor labels being close together.

The next test deals with T2, PI3K-alpha (Homo sapiens, UniProt P42336).
T2 construct: purchased Upstate; Millipore 14-602
In words: HTRF PI3K biochemical assay, alpha isoform. The settings on record: ratio PI3K-alpha IC50 value / PI3K-delta IC50 value.

The structures appear in SMILES notation.

The source of these data is US9938281B2 (Merck Sharp & Dohme Corp., priority 2012, dated 2018).

T2 sequence (P42336 whole entry): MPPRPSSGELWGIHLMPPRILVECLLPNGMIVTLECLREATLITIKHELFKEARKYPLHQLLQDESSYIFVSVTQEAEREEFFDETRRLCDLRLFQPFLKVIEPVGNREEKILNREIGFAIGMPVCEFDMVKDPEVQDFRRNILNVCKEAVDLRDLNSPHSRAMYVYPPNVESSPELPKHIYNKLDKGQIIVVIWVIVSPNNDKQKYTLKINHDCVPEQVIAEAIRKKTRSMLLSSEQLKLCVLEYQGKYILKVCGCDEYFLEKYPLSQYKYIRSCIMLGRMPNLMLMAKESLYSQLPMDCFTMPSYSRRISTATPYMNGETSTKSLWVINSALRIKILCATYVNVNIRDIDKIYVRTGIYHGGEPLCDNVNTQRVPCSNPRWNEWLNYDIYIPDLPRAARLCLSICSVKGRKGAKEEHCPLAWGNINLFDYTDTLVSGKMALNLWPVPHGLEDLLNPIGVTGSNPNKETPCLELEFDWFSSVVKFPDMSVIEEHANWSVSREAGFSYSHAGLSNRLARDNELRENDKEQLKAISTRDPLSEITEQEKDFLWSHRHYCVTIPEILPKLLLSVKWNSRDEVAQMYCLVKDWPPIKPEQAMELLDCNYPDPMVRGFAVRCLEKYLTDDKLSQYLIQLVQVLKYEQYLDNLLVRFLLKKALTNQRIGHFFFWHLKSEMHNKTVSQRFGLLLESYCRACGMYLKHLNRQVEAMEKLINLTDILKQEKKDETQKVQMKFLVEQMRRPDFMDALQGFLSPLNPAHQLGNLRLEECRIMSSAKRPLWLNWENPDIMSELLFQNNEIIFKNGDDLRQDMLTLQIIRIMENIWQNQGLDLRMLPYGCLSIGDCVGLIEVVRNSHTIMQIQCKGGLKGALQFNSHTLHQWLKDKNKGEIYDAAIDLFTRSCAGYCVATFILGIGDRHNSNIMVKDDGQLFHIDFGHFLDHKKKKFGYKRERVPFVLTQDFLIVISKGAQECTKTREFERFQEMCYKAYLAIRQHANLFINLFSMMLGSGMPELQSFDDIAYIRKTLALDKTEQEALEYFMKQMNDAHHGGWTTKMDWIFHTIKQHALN
T2 sequence (P27986 whole entry partner): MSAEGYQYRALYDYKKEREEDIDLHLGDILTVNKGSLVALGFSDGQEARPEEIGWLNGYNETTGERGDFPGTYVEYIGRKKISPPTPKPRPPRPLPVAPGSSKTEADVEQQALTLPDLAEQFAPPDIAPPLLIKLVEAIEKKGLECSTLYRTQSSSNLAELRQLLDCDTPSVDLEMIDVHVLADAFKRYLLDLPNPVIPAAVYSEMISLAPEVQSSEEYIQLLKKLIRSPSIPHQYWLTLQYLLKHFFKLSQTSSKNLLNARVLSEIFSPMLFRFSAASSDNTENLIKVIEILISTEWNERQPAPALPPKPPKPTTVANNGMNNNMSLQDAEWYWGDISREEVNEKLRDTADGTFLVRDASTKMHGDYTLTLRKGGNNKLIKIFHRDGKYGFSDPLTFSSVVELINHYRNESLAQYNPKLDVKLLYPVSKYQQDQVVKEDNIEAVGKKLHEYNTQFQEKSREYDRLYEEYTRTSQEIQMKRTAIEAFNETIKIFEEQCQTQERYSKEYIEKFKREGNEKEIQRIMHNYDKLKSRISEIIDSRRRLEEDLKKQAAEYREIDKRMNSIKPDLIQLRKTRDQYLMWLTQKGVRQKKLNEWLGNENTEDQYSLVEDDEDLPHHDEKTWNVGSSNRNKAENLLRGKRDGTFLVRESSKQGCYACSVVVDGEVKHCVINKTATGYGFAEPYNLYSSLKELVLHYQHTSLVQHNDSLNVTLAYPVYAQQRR
T1 sequence (O00329 whole entry): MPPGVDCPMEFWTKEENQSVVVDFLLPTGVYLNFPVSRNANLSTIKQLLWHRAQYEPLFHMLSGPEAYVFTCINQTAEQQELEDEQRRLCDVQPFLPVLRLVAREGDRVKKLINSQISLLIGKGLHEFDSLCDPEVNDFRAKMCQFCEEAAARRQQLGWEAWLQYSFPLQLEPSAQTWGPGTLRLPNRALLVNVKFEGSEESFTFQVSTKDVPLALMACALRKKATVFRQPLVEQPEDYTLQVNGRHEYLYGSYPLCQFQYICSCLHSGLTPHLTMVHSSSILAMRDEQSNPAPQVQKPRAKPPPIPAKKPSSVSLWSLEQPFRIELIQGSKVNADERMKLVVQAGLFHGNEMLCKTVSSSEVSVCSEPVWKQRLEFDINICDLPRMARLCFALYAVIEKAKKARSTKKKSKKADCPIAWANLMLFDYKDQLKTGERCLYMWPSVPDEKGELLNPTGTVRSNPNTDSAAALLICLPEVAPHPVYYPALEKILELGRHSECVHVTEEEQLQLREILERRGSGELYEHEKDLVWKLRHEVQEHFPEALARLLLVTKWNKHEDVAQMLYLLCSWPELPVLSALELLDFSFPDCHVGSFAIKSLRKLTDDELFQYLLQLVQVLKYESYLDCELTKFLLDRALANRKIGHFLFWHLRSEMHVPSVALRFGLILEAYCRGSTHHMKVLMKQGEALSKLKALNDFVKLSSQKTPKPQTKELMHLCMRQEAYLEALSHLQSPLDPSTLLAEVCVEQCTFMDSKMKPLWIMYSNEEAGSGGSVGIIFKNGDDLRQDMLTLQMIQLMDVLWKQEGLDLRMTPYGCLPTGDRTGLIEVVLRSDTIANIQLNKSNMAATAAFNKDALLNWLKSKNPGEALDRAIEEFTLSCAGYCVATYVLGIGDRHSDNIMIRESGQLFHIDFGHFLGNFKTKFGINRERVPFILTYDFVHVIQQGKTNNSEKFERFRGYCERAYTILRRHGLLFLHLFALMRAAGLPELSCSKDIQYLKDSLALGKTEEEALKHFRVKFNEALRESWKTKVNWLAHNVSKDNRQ
T1 sequence (P27986 whole entry partner): as the sequence (P27986 whole entry partner) above

For the compound `CCn1c(-c2cnc(C)nc2)nc2c(N[C@H]3CCN(C(=O)NC(C)(C)C(=O)OC)C3)ncnc21` [Compound 12-24, methyl N-{[(3S)-3-{[9-ethyl-8-(2-methylpyrimidin-5-yl)-9H-purin-6-yl]amino}pyrrolidin-1-yl]carbonyl}-2-methylalaninate], the IC50 on PI3K-delta was found to be 1.9 nM. Further, the “Selectivity versus PI3Kalpha” value at PI3K-alpha was above 10.
On to `CCn1c(-c2cnc(C)nc2)nc2c(N[C@H]3CCN(C(=O)C4CC(C)(C)C4)C3)ncnc21` [Compound 2-59, N-{(3S)-1-[(3,3-dimethylcyclobutyl)carbonyl]pyrrolidin-3-yl}-9-ethyl-8-(2-methylpyrimidin-5-yl)-9H-purin-6-amine], for which the IC50 at PI3K-delta was below 1 nM. Moreover, the “Selectivity versus PI3Kalpha” value on PI3K-alpha is on record as above 10.
On to `CCn1ncc(-c2nc3c(N(C)[C@H]4CCN(C(=O)OC(C)(C)C)C4)ncnc3n2C)c1C` [Compound 1-3, (S)-tert-butyl 3-((8-(1-ethyl-5-methyl-1H-pyrazol-4-yl)-9-methyl-9H-purin-6-yl)(methyl)amino)pyrrolidine-1-carboxylate], for which the IC50 on PI3K-delta was 98 nM. Further, the “Selectivity versus PI3Kalpha” value on PI3K-alpha is listed as above 10.
As to `CCn1c(C(=O)NC2CCCCC2)nc2c(N[C@H]3CCN(C(=O)C4CC4)C3)ncnc21` [Compound 6-14, N-cyclohexyl-6-{[(3S)-1-(cyclopropylcarbonyl)pyrrolidin-3-yl]amino}-9-ethyl-9H-purine-8-carboxamide], the IC50 on PI3K-delta turned out to be 17 nM. Moreover, the “Selectivity versus PI3Kalpha” value at PI3K-alpha is reported as above 10.
For the compound `CCn1c(-c2cnc(C)nc2)nc2c(N[C@H]3CCN(C(=O)C4(O)CC4)C3)ncnc21` [Compound 2-66, 1-{[(3S)-3-{[9-ethyl-8-(2-methylpyrimidin-5-yl)-9H-purin-6-yl]amino}pyrrolidin-1-yl]carbonyl}cyclopropanol], the IC50 on PI3K-delta was determined as 10 nM. On PI3K-alpha, the “Selectivity versus PI3Kalpha” value is given as above 10.
Take `CCn1c(-c2cnc(C)nc2)nc2c(N(C)[C@H]3CCN(C(=O)C4CC4)C3)ncnc21` [Compound 3-29, N-[(3S)-1-(cyclopropylcarbonyl)pyrrolidin-3-yl]-9-ethyl-N-methyl-8-(2-methylpyrimidin-5-yl)-9H-purin-6-amine]: at PI3K-delta, the IC50 worked out at 40 nM. Further, the “Selectivity versus PI3Kalpha” value on PI3K-alpha is above 10.
Consider `CCC(=O)N1CC[C@H](Nc2ncnc3c2nc(-c2cnn(CC)c2C)n3C2CC2)C1` [Compound 2-16, (S)-1-(3-((9-cyclopropyl-8-(1-ethyl-5-methyl-1H-pyrazol-4-yl)-9H-purin-6-yl)amino)pyrrolidin-1-yl)propan-1-one], for which the IC50 at PI3K-delta came out at 53 nM. For the same compound, the “Selectivity versus PI3Kalpha” value at PI3K-alpha is on record as above 10.
Consider `CCn1ncc(-c2nc3c(N[C@H]4CCN(C(=O)OC(C)(C)C)C4)ncnc3n2C)c1C` [Compound 1-2, tert-butyl (3S)-3-{[8-(1-ethyl-5-methyl-1H-pyrazol-4-yl)-9-methyl-9H-purin-6-yl]amino}pyrrolidine-1-carboxylate], for which the IC50 at PI3K-delta came to 1.8 nM. For the same compound, the “Selectivity versus PI3Kalpha” value at PI3K-alpha was above 10.
In the case of `CCn1c(-c2cnc(C)nc2)nc2c(N[C@H]3C[C@H](C(=O)NC(C)C)N(C(=O)C4CC4)C3)ncnc21` [Compound 15-4, (4S)-1-(cyclopropylcarbonyl)-4-{[9-ethyl-8-(2-methylpyrimidin-5-yl)-9H-purin-6-yl]amino}-N-(1-methylethyl)-D-prolinamide], the IC50 at PI3K-delta is 15 nM. The “Selectivity versus PI3Kalpha” value at PI3K-alpha is given as above 10.
For the compound `CCC(=O)N1CC[C@H](Nc2ncnc3c2nc(C)n3CC)C1` [Compound 7-4, 9-ethyl-8-methyl-N-[(3S)-1-propanoylpyrrolidin-3-yl]-9H-purin-6-amine], on PI3K-delta, the IC50 is 500 nM. On PI3K-alpha, the “Selectivity versus PI3Kalpha” value was above 10.
As to `CCn1c(C(=O)NCC(F)(F)F)nc2c(N[C@H]3CCN(C(=O)N4CC(OC)C4)C3)ncnc21` [Compound 12-27, 9-ethyl-6-({(3S)-1-[(3-methoxyazetidin-1-yl)carbonyl]pyrrolidin-3-yl}amino)-N-(2,2,2-trifluoroethyl)-9H-purine-8-carboxamide], on PI3K-delta, the IC50 was determined as 5.1 nM. Also, the “Selectivity versus PI3Kalpha” value on PI3K-alpha was above 10.
For `CCn1c(-c2cnc(OC)c(C)c2)nc2c(N[C@H]3CCN(C(=O)C4CCOCC4)C3)ncnc21` [Compound 3A-4, 9-ethyl-8-(6-methoxy-5-methylpyridin-3-yl)-N-[(3S)-1-(tetrahydro-2H-pyran-4-ylcarbonyl)pyrrolidin-3-yl]-9H-purin-6-amine], in that order: below 1 nM and above 10.
As for `CCn1c(-c2cnc(C)nc2)nc2c(N[C@H]3CCN(C(=O)OCCF)C3)ncnc21` [Compound 13-3, 2-fluoroethyl (3S)-3-{[9-ethyl-8-(2-methylpyrimidin-5-yl)-9H-purin-6-yl]amino}pyrrolidine-1-carboxylate], at PI3K-delta, the IC50 worked out at 8.7 nM. For the same compound, the “Selectivity versus PI3Kalpha” value at PI3K-alpha is reported as above 10.
Take `CCn1c(C(F)F)nc2c(N[C@H]3CCN(C(=O)C4CC45CCCC5)C3)ncnc21` (single isomer, unassigned) [Compound 7-21, (S or R)-8-(difluoromethyl)-9-ethyl-N-[(3S)-1-(spiro[2.4]hept-1-ylcarbonyl)pyrrolidin-3-yl]-9H-purin-6-amine]: the IC50 at PI3K-delta was 2.4 nM. Besides, the “Selectivity versus PI3Kalpha” value at PI3K-alpha is listed as above 10.
For `CCn1c(C2CC2)nc2c(N[C@H]3CCN(C(=O)C4CC4)C3)ncnc21` [Compound 7-10, 8-cyclopropyl-N-[(3S)-1-(cyclopropylcarbonyl)pyrrolidin-3-yl]-9-ethyl-9H-purin-6-amine], the IC50 at PI3K-delta stood at 120 nM. Also, on PI3K-alpha, the “Selectivity versus PI3Kalpha” value is above 10.
For `CCn1c(-c2cnc(C)nc2)nc2c(NC3CN(C(=O)C4CC4)CC3C(F)(F)F)ncnc21` (racemic) [Compound 3-22, N-[(3R,4S and 3S,4R)-1-(cyclopropylcarbonyl)-4-(trifluoromethyl)pyrrolidin-3-yl]-9-ethyl-8-(2-methylpyrimidin-5-yl)-9H-purin-6-amine], the IC50 at PI3K-delta was 2.9 nM. Further, the “Selectivity versus PI3Kalpha” value at PI3K-alpha is on record as above 10.
As for `CCn1c(-c2cnc(C)nc2)nc2c(N[C@H]3CCN(C(=O)[C@H]4CC[C@@H](O)CC4)C3)ncnc21` [Compound 2-98, cis-4-{[(3S)-3-{[9-ethyl-8-(2-methylpyrimidin-5-yl)-9H-purin-6-yl]amino}pyrrolidin-1-yl]carbonyl}cyclohexanol], the IC50 at PI3K-delta is 2.8 nM. Also, the “Selectivity versus PI3Kalpha” value on PI3K-alpha is listed as above 10.
`CCn1ncc(-c2nc3c(N[C@@H]4CCCN(C(=O)OC(C)(C)C)C4)ncnc3n2C)c1C` [Compound 1-11, (R)-tert-butyl 3-((8-(1-ethyl-5-methyl-1H-pyrazol-4-yl)-9-methyl-9H-purin-6-yl)amino)piperidine-1-carboxylate]: the IC50 at PI3K-delta came out at 250 nM. For the same compound, the “Selectivity versus PI3Kalpha” value at PI3K-alpha was above 10.
As for `CCn1c(-c2cnc(C)nc2)nc2c(N[C@H]3CCN(C(=O)[C@H]4C[C@H](OC)C4)C3)ncnc21` [Compound 2-38, 9-ethyl-N-{(3S)-1-[(trans-3-methoxycyclobutyl)carbonyl]pyrrolidin-3-yl}-8-(2-methylpyrimidin-5-yl)-9H-purin-6-amine], on PI3K-delta, the IC50 was 1.7 nM. In addition, the “Selectivity versus PI3Kalpha” value at PI3K-alpha is on record as above 10.
For `CCn1c(-c2cnc(C)nc2)nc2c(N[C@H]3CCN(C(=O)C4(C)CCCO4)C3)ncnc21` (mixture of isomers) [Compound 2-68, 9-ethyl-8-(2-methylpyrimidin-5-yl)-N-{(3S)-1-[((S and R)-2-methyltetrahydrofuran-2-yl)carbonyl]pyrrolidin-3-yl}-9H-purin-6-amine], the IC50 at PI3K-delta is 26 nM. In addition, the “Selectivity versus PI3Kalpha” value on PI3K-alpha was above 10.
Take `CCn1c(-c2cnc(C)nc2)nc2c(N[C@H]3CCN(C(=O)C4C5CCNC54)C3)ncnc21` (mixture of isomers) [Compound 2-85, N-[(3S)-1-(1(R and S), 5(R and S), 6(R and S)-2-azabicyclo[3.1.0]hex-6-ylcarbonyl)pyrrolidin-3-yl]-9-ethyl-8-(2-methylpyrimidin-5-yl)-9H-purin-6-amine]: the IC50 on PI3K-delta came to 7.3 nM. The “Selectivity versus PI3Kalpha” value at PI3K-alpha is above 10.
As to `CCn1c(-c2cnc(C)nc2)nc2c(N[C@H]3CCN(C(=O)N4CCC(C)(C)C4)C3)ncnc21` [Compound 12-11, N-{(3S)-1-[(3,3-dimethylpyrrolidin-1-yl)carbonyl]pyrrolidin-3-yl}-9-ethyl-8-(2-methylpyrimidin-5-yl)-9H-purin-6-amine], the IC50 at PI3K-delta was below 1 nM. For the same compound, the “Selectivity versus PI3Kalpha” value on PI3K-alpha is reported as above 10.
Take `CCn1c(-c2cnc(C)nc2)nc2c(NC3CN(C(=O)C4CC4)CC3C)ncnc21` (racemic) [Compound 3-16, N-[(3R,4R and 3S,4S)-1-(cyclopropylcarbonyl)-4-methylpyrrolidin-3-yl]-9-ethyl-8-(2-methylpyrimidin-5-yl)-9H-purin-6-amine]: the IC50 on PI3K-delta amounted to 3.4 nM. Besides, on PI3K-alpha, the “Selectivity versus PI3Kalpha” value was above 10.
On to `CCn1c(-c2cnc(C)nc2)nc2c(NC3CN(C(=O)C4CC4)CC3(F)F)ncnc21` (racemic) [Compound 2-25, N-[(3S and 3R)-1-(cyclopropylcarbonyl)-4,4-difluoropyrrolidin-3-yl]-9-ethyl-8-(2-methylpyrimidin-5-yl)-9H-purin-6-amine], for which the IC50 at PI3K-delta was 3.7 nM. Moreover, the “Selectivity versus PI3Kalpha” value at PI3K-alpha is above 10.
For `CCn1c(-c2cnc(C)nc2)nc2c(NC3CN(C(=O)OC(C)(C)C)CC3(F)F)ncnc21` (racemic) [Compound 1-21, (R and S)-tert-butyl 4-{[9-ethyl-8-(2-methylpyrimidin-5-yl)-9H-purin-6-yl]amino}-3,3-difluoropyrrolidine-1-carboxylate], in that order: 9.4 nM and above 10.
As to `CCn1c(-c2cncc(Cl)c2)nc2c(N[C@H]3CCN(C(=O)C4CC4)C3)ncnc21` [Compound 3-38, 8-(5-chloropyridin-3-yl)-N-[(3S)-1-(cyclopropylcarbonyl)pyrrolidin-3-yl]-9-ethyl-9H-purin-6-amine], the IC50 at PI3K-delta turned out to be 1.8 nM. At PI3K-alpha, the “Selectivity versus PI3Kalpha” value is listed as above 10.
